{"source": "patent US9181290B2", "about": "“Inhibition of biofilm formation by 1,2,3,4,6-penta-O-galloyl-D-glucopyranose” (CHANG GUNG UNIVERSITY, priority 2011, dated 2015)", "key": {"[1]": {"test_system": "S. aureus SA113 (ATCC 35556)", "assay": "Bacterial growth (A578) and biofilm formation (crystal violet, A595) in 96-well polystyrene microtiter plates", "format": "cell-based, Staphylococcus aureus", "conditions": "for Biofilm (%) / Growth (%): 6 hours after seeding, control = 100%, mean ± SD", "procedure": "An overnight bacterial culture was 200-fold diluted with TSBg, and a 200 μL aliquot of the diluted culture was seeded into each well of 96-well polystyrene microtiter plates and incubated at 37° C. for a designated period of time. Cell growth was determined by measuring the absorbance at 578 nm (A578) with a microtiter plate reader (SpectraMax 340, Molecular Devices). After washing with PBS twice to remove suspended cells, the wells were stained with 0.1% (w/v) crystal violet in 10% ethanol and then treated with 30% acetic acid in dH2O, followed by detecting the absorbance at 595 nm (A595) with the microtiter plate reader to quantify the amount of biofilm formed on polystyrene surface.\nAn overnight culture of S. aureus SA113 was 200-fold diluted with TSBg, and a 200 μL aliquot of the diluted culture was seeded into each well of 96-well microtiter plates. Compounds purified from medicinal plants were added into each well at a designated concentration up to […]. At 6 hours after seeding, the amounts of biofilms formed in the wells were determined by crystal violet staining as described above. Cells treated with either distilled water or DMSO were used as a control. The amount of biofilm formation by the control group was set as 100%. Each experiment was repeated at least three times, with n=6 for each sample tested. The concentrations of compounds that inhibited 50% biofilm formation (IB50) were calculated based on logistic regression analysis results. Besides, the biofilm formation inhibition rate of a PGG-treated group was calculated using the following equation (1). Biofilm formation inhibition rate(%)=[(A−B)/A]×100 (1) wherein:\nIn the wells of 96-well microtiter plates, S. aureus SA113 cells were cultured in TSBg broth in the presence of either β-PGG or α-PGG at different amounts (0, 1 and 10 μM). After incubation at 37° C. for 6 hrs, the cell density was determined by measuring the absorbance at 578 nm (A578), and the amounts of biofilm were quantified by crystal violet staining, with the amount of biofilm formed by untreated bacterial cells being set as 100%. Each experiment was repeated three times, with n=6 for each sample tested.\n(§1) To determine the effect(s) of (β-PGG upon bacterial growth and biofilm formation, β-PGG in various amounts (final concentration: 0, 1.56, 3.13, 6.25, 12.5, 25 and 50 μM) was added into the culture of S. aureus SA113 during seeding into the wells of polystyrene microtiter plates, followed by incubation at 37° C. for 6 hrs or 24 hrs. Cell growth was determined by measuring the absorbance at 578 nm, and the amount of biofilm formed on polystyrene surface was determined at 595 nm after crystal violet staining. In addition to polystyrene surface, the effect of β-PGG in inhibiting biofilm formation on polycarbonate surface was also examined according to the procedures as described in the preceding section entitled “Materials and methods.”"}, "[2]": {"test_system": "S. aureus SA113 (ATCC 35556)", "assay": "Biofilm formation on polycarbonate discs (crystal violet)", "format": "cell-based", "conditions": "Staphylococcus aureus, ATCC35556, 6 hours, read-out: inhibition of biofilm formation on polycarbonate surface", "procedure": "To quantify the amount of biofilm formed on polycarbonate surface, a 13-mm-diameter polycarbonate disc (Thermanox, Nalgene Nunc International, Rochester, N.Y., USA) was placed in a well of a 24-well microtiter plate, followed by the addition of 1 mL aliquot of the diluted bacterial culture. After incubation at 37° C. for a designated period of time, viable cells were washed off the surface of the polycarbonate disc with PBS and counted as described above, while the PBS-washed polycarbonate disc was subjected to crystal violet staining for biofilm quantification as described above.\nas §1"}, "[3]": {"test_system": "PIA production by clinical isolates of S. aureus (SA13, SA288, SA44, SA 130)", "assay": "Quantification of PIA in four clinical isolates", "format": "cell-based, Staphylococcus aureus", "conditions": "12.5 μM and 25 μM, 6 hrs", "procedure": "The amount of PIA was determined by chemiluminescence detection using horseradish peroxidase-conjugated streptavidin (Pierce) according to a method described elsewhere (S. Schlag et al. (2007), supra). Briefly, a tested bacterial strain prepared in TSBg broth was added with β-PGG at a designated concentration and then cultured in a 9 cm petri dish for 6 hrs. The bacterial cells grown in the petri dish were collected by scraping, followed by centrifugation, and the resultant cell pellets were redissolved by addition of 3 mL of 0.5 M EDTA (pH 8.0) for every gram (wet weight) of cell pellet, followed by boiling at 100° C. for 10 min. After centrifugation at 10,000 g for 30 min, the resultant supernatant was 100-fold diluted. An 80 μL aliquot of the diluted supernatant was incubated with 20 μL of proteinase K (10 mg/mL, in dH2O) at 37° C. for 2 hrs, followed by blotting onto a PVDF membrane (Millipore) using a 96-well dot-blot apparatus. […] Thereafter, the membrane was detected by autoradiography using X-ray film, and the intensity of each spot formed on the X-ray film was quantified using a densitometer (LAS-3000, Fujifilm). The relative PIA amount produced by the tested bacterial strain was determined based on the detected intensity, with the amount of PIA from bacterial cells without PGG treatment being set as 100%. […]"}, "[4]": {"test_system": "Enterococcus faecalis", "assay": "Anti-biofilm activity (data not shown)", "format": "cell-based"}, "[5]": {"test_system": "Acinetobacter baumannii", "assay": "Anti-biofilm activity (data not shown)", "format": "cell-based"}}, "note": "Entries after “also recorded” stand apart in the source; their conditions may differ."}
{"smiles": "O=C(OC[C@H]1O[C@@H](OC(=O)c2cc(O)c(O)c(O)c2)[C@H](OC(=O)c2cc(O)c(O)c(O)c2)[C@@H](OC(=O)c2cc(O)c(O)c(O)c2)[C@@H]1OC(=O)c1cc(O)c(O)c(O)c1)c1cc(O)c(O)c(O)c1", "note": "[β-PGG, 1,2,3,4,6-penta-O-galloyl-β-D-glucopyranose]", "values": [{"measurement": "viability of S. aureus SA113 cells (A578)", "setting": "[1]; 1 μM and 10 μM, 6 hour incubation (anomer comparison)", "value": "did not affect the viability"}, {"measurement": "reduction of biofilm formation", "setting": "[1]; 1 μM, 6 hour incubation (anomer comparison)", "value": 10, "unit": "%"}, {"measurement": "killing of S. aureus SA113", "setting": "[1]; 10 μM", "value": "did not kill S. aureus SA113"}, {"measurement": "reduction of biofilm formation", "setting": "[1]; 10 μM, 6 hour incubation (anomer comparison)", "value": 65, "unit": "%"}, {"measurement": "Biofilm (%)", "setting": "[1]; 10 μM", "value": "5 ± 1", "unit": "%"}, {"measurement": "Growth (%)", "setting": "[1]; 10 μM", "value": "109 ± 8", "unit": "%"}, {"measurement": "Growth (A578)", "setting": "[1]; 12.5 μM β-PGG, 6 hr, 0 μM: 0.68 ± 0.02", "value": "0.65 ± 0.03"}, {"measurement": "Biofilm (A595)", "setting": "[1]; 12.5 μM β-PGG, 6 hr, 0 μM: 6.31 ± 0.34", "value": "0.26 ± 0.28"}, {"measurement": "reduction of biofilm formation", "setting": "[1]; 100 μM, 6 hours", "value": 98, "unit": "%"}, {"measurement": "Biofilm (%)", "setting": "[1]; 100 μM", "value": "2 ± 0", "unit": "%"}, {"measurement": "Growth (%)", "setting": "[1]; 100 μM", "value": "69 ± 5", "unit": "%"}, {"measurement": "amounts of biofilm on polystyrene surface after 24 hr incubation", "setting": "[1]; 24 hrs", "value": "approximately equal to those observed after 6 hr incubation"}, {"measurement": "inhibition at 6.25 µM", "setting": "[1]; Staphylococcus aureus, ATCC35556, 6.25 μM, 6 hrs, read-out: inhibition of biofilm formation on polystyrene surface", "value": 93, "unit": "%"}, {"measurement": "inhibition at 10 µM", "setting": "[1]; Staphylococcus aureus, ATCC35556, 10 μM, 6 hr incubation (screening)", "value": 95, "unit": "%"}, {"measurement": "inhibition at 12.5 µM", "setting": "[1]; Staphylococcus aureus, ATCC35556, 12.5 μM, 6 hrs, read-out: inhibition of biofilm formation on polystyrene surface", "value": 96, "unit": "%"}, {"measurement": "inhibition at 25 µM", "setting": "[1]; Staphylococcus aureus, ATCC35556, 25 μM, 6 hrs, read-out: inhibition of biofilm formation on polystyrene surface", "value": 97, "unit": "%"}, {"measurement": "inhibition at 100 µM", "setting": "[1]; Staphylococcus aureus, ATCC35556, 100 μM, 6 hours", "value": 31, "unit": "%"}, {"measurement": "IC50", "setting": "[1]; Staphylococcus aureus, ATCC35556, 6 hours, logistic regression, read-out: IB50 (concentration that inhibited 50% biofilm formation)", "value": 3.6, "unit": "µM"}, {"measurement": "viability of S. aureus SA113", "setting": "[1]; concentrations below 50 μM, 6 hours incubation", "value": "did not affect the viability; also recorded: did not kill S. aureus SA113 cells"}, {"measurement": "Cell Growth (%)", "setting": "[1]; growth compared to untreated control at the concentration of IB50", "value": 100, "unit": "%"}, {"measurement": "inhibition at 6.25 µM", "setting": "[2]; 6.25 μM", "value": 75, "unit": "%"}, {"measurement": "inhibition at 12.5 µM", "setting": "[2]; 12.5 μM", "value": 96, "unit": "%"}, {"measurement": "inhibition at 25 µM", "setting": "[2]; 25 μM", "value": 99, "unit": "%"}, {"measurement": "PIA production by four clinical isolates", "setting": "[3]", "value": "inhibited PIA production"}, {"measurement": "anti-biofilm activity", "setting": "[4]", "value": "potent to mild anti-biofilm activity"}, {"measurement": "anti-biofilm activity", "setting": "[5]", "value": "potent to mild anti-biofilm activity"}]}
